Source: PubChem BioAssay (NCI)
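A five-concentration, 48-hour dose response in 96-well plates underlies each endpoint, interpolated linearly between surrounding concentrations. GI50 = concentration required for 50% inhibition of growth. TGI is the concentration that stops growth completely.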

Experiments:
Assay in all cases: NCI anticancer screen, dose series, 48 h
[1] = test system: HOP-62 NSCLC
[2] = test system: MOLT-4 leukemia
[3] = test system: ACHN renal
[4] = test system: 786-0 renal
[5] = test system: HL-60(TB) leukemia
[6] = test system: NCI-H460 lung
[7] = test system: CCRF-CEM leukemia
[8] = test system: SF-295 CNS
[9] = test system: T-47D breast
[10] = test system: SW-620 colon
[11] = test system: COLO 205 colon
[12] = test system: M14 melanoma
[13] = test system: IGROV1 ovarian
[14] = test system: SF-268 CNS
[15] = test system: SNB-75 CNS
[16] = test system: SR leukemia
[17] = test system: UACC-257 melanoma
[18] = test system: HT29 colon
[19] = test system: MCF7 breast
[20] = test system: SK-OV-3 ovarian
[21] = test system: HS 578T breast
[22] = test system: HCT-116 colon
[23] = test system: OVCAR-3 ovarian
[24] = test system: A498 renal
[25] = test system: UO-31 renal
[26] = test system: RXF 393 renal
[27] = test system: SN12C renal
[28] = test system: TK-10 renal
[29] = test system: NCI-H23 lung

Work on `CC1(C)CC[C@]2(C(=O)Nc3ccc(F)cc3)CC[C@]3(C)C(=CCC4[C@@]5(C)C[C@@H](O)[C@H](O)[C@@](C)(CO)C5CC[C@]43C)C2C1` (some centres not stated) yielded a GI50 [1] of 18.8 µM, a TGI [1] of 43.5 µM and a GI50 [2] of 7.51 µM. For the same compound, the TGI [2] was 30.6 µM, the GI50 [3] was 14.8 µM and the TGI [3] was 28.1 µM. The GI50 [4] was 15.5 µM, the TGI [4] was 30.4 µM and the GI50 [5] was 14.2 µM. For the same compound, the TGI [5] was 38.8 µM, the GI50 [6] was 15.4 µM and the TGI [6] was 33.8 µM. It also gave a GI50 [7] of 20 µM, a TGI [7] of 90.6 µM and a GI50 [8] of 13.9 µM. For the same compound, the TGI [8] was 28.6 µM, the GI50 [9] was 12.9 µM and the TGI [9] was 32.1 µM. It also gave a GI50 [10] of 25.8 µM, a TGI [10] greater than 100 µM and a GI50 [11] of 16.7 µM. The TGI [11] was 33.6 µM, the GI50 [12] was 15.7 µM and the TGI [12] was 31.5 µM. For the same compound, the GI50 [13] was 15.8 µM, the TGI [13] was 34.1 µM and the GI50 [14] was 22.6 µM. It also gave a TGI [14] of 89 µM, a GI50 [15] of 13.5 µM and a TGI [15] of 61 µM. For the same compound, the GI50 [16] was 10.3 µM, the TGI [16] was 37.3 µM and the GI50 [17] was 18.4 µM. The TGI [17] was 47.9 µM, the GI50 [18] was 15.6 µM and the TGI [18] was 30.5 µM. For the same compound, the GI50 [19] was 13 µM, the TGI [19] was 29.5 µM and the GI50 [20] was 20.3 µM. For the same compound, the TGI [20] was 51 µM, the GI50 [21] was 20.5 µM and the TGI [21] was 76.9 µM. For the same compound, the GI50 [22] was 13.1 µM, the TGI [22] was 26 µM and the GI50 [23] was 16.3 µM. For the same compound, the TGI [23] was 31.2 µM, the GI50 [24] was 20.8 µM and the TGI [24] was 45.6 µM. It also gave a GI50 [25] of 12.8 µM, a TGI [25] of 29.2 µM and a GI50 [26] of 10.9 µM. The TGI [26] was 23.3 µM, the GI50 [27] was 14.8 µM and the TGI [27] was 29.6 µM. It also gave a GI50 [28] of 22.8 µM, a TGI [28] of 54.1 µM and a GI50 [29] of 17.9 µM.
